This is an account of results in ChEMBL document CHEMBL5053546, “Peptidomimetic analogues of an Arg-Trp-x-x-Trp motif responsible for interaction of translocase MraY with bacteriophage ϕX174 lysis protein E” (Bioorg Med Chem, 2021).

Each structure is given as a SMILES string. Values after ≈ are worked out from the molar mass of the structure shown. Active and inactive are the calls of the source. The calls are words filed in the database; no cut-off is given here.

One test has as its system Pseudomonas fluorescens. Briefly: Antibacterial activity against Pseudomonas fluorescence Pf-5 assessed as reduction in bacterial growth incubated overnight by microplate reader analysis. It counts as functional.
Test [1] deals with Escherichia coli. The experiment in a line: Bacteriocidal activity against Escherichia coli at 250 ug/ml incubated for 1 hr followed by alamar blue addition measured after 2 to 3 hrs by fluorescence based analysis. It counts as functional, organism-based. The conditions noted are these: dose 250.0 µg/ml. On the technique in general: Resazurin is reduced to fluorescent resorufin, in cell work by metabolically active cells.

Test [2] has as its system Escherichia coli. Briefly: Inhibition of MraY overexpressed in Escherichia coli membrane using UDP-MurNAc-L-Ala-gamma-D-Glu-L-Lys(N epsilon-dansyl)-D-Ala-D-Ala as substrate at 200 ug/ml by fluoresence enhancement assay. As to conditions: dose 200.0 µg/ml. It counts as cell membranes.
Test [3] concerns Escherichia coli. The experiment in a line: Antibacterial activity against Escherichia coli K-12 assessed as reduction in bacterial growth incubated overnight by microplate reader analysis. In kind it is functional.
Test [4] deals with Bacillus subtilis. Briefly: Antibacterial activity against Bacillus subtilis W23 assessed as reduction in bacterial growth incubated overnight by microplate reader analysis. In kind it is functional.
The test system of another test is Acinetobacter baumannii. The experiment in a line: Antibacterial activity against multi drug resistant ESBL positive Acinetobacter baumannii NCTC 13420 assessed as reduction in bacterial growth by CLSI protocol based assay. It counts as functional.
Test [5] relates to Pseudomonas aeruginosa. Briefly: Antibacterial activity against multi drug resistant Pseudomonas aeruginosa NCTC 13437 assessed as reduction in bacterial growth by CLSI protocol based assay. It counts as functional.
Test [6] deals with Escherichia coli. The experiment in a line: Inhibition of Escherichia coli MraY overexpressed in Escherichia coli membrane using UDP-MurNAc-L-Ala-gamma-D-Glu-L-Lys(N epsilon-dansyl)-D-Ala-D-Ala and undecaprenyl phosphate as substrate assessed as reduction in lipid II synthesis at 200 uM incubated for 30 mins in presence of [3H]-UDPGlcNAc by liquid scintillation counting analysis relative to control. In kind it is cell membranes.

Another test has as its system Enterococcus faecalis. The experiment in a line: Antibacterial activity against high level aminoglycoside resistant Enterococcus faecalis ATCC 51299 assessed as reduction in bacterial growth by CLSI protocol based assay. In kind it is functional.
For the next test, the system named is Staphylococcus aureus. Briefly: Antibacterial activity against Staphylococcus aureus MRSA JE2 USA300 assessed as reduction in bacterial growth by CLSI protocol based assay. It counts as functional.
In a further test the test system is Enterobacter cloacae. Briefly: Antibacterial activity against ESBL positive Enterobacter cloacae NCTC 13405 assessed as reduction in bacterial growth by CLSI protocol based assay. In kind it is functional.
A further test concerns Klebsiella pneumoniae. The experiment in a line: Antibacterial activity against ESBL positive Klebsiella pneumoniae ATCC 700603 assessed as reduction in bacterial growth by CLSI protocol based assay.
For test [7], the system named is Escherichia coli. The experiment in a line: Inhibition of MraY overexpressed in Escherichia coli membrane using UDP-MurNAc-L-Ala-gamma-D-Glu-L-Lys(N epsilon-dansyl)-D-Ala-D-Ala as substrate at 200 uM by continuous fluoresence assay. It counts as cell membranes.
The subject of test [8] is Escherichia coli. The experiment in a line: Inhibition of MraY overexpressed in Escherichia coli membrane using UDP-MurNAc-L-Ala-gamma-D-Glu-L-Lys(N epsilon-dansyl)-D-Ala-D-Ala and undecaprenyl phosphate as substrate assessed as reduction in lipid II synthesis at 200 uM incubated for 30 mins in presence of [3H]-UDPGlcNAc by liquid scintillation counting analysis. It counts as cell membranes.

Test [9] relates to Bacillus subtilis. Briefly: Antibacterial activity against Bacillus subtilis assessed as reduction in bacterial growth by NCCLS protocol based broth dilution method. It counts as functional.
The subject of test [10] is Escherichia coli. Briefly: Antibacterial activity against Escherichia coli K-12 assessed as reduction in bacterial growth by NCCLS protocol based broth dilution method. It counts as functional.
Test [11] deals with Pseudomonas aeruginosa. Briefly: Antibacterial activity against Pseudomonas aeruginosa assessed as reduction in bacterial growth by NCCLS protocol based broth dilution method. It counts as functional. For orientation: Dilution methods test growth across graded concentrations, often in twofold steps.
The test system of test [12] is Escherichia coli. Briefly: Bacteriostatic activity against Escherichia coli at 250 ug/ml incubated for 1 hr followed by alamar blue addition measured after 2 to 3 hrs by fluorescence based analysis. As to conditions: dose 250.0 µg/ml. It counts as functional, organism-based.
Test [13] in a line: Inhibition of MraY overexpressed in Escherichia coli membrane using UDP-MurNAc-L-Ala-gamma-D-Glu-L-Lys(N epsilon-dansyl)-D-Ala-D-Ala as substrate by continuous fluoresence assay. In kind it is cell membranes.
Test [14] relates to Escherichia coli. Briefly: Inhibition of Escherichia coli MraY overexpressed in Escherichia coli membrane using UDP-MurNAc-L-Ala-gamma-D-Glu-L-Lys(N epsilon-dansyl)-D-Ala-D-Ala as substrate at 200 uM by continuous fluoresence assay relative to control. In kind it is cell membranes.

For the compound `CCCCCCCCNC(=O)[C@H](Cc1c[nH]c2ccccc12)NC(=O)[C@@H](N)CCCCN`, the MIC50 with Pseudomonas fluorescens came to 26 µg/mL (≈ 58.6 µM); in the test on Escherichia coli [3], 17 µg/mL (≈ 38.3 µM); with Bacillus subtilis [4], 11 µg/mL (≈ 24.8 µM). In the test with Escherichia coli [1], the result was Active. The inhibition entry with Escherichia coli [2] is “inactive”.

Turning to `CCCCCCC(=O)N(Cc1ccccc1)c1ccc(C(=O)N[C@@H](CCCCN)C(=O)OC)c(OCCc2c[nH]c3ccccc23)c1`, the MIC50 was more than 125 µg/mL with Pseudomonas fluorescens; more than 256 µg/mL with Acinetobacter baumannii; more than 256 µg/mL with Pseudomonas aeruginosa [5]; 4 µg/mL (≈ 6.24 µM) in the test on Escherichia coli [3]; 8 µg/mL (≈ 12.5 µM) in the test with Enterococcus faecalis; 28 µg/mL (≈ 43.7 µM) in the test with Bacillus subtilis [4]. Besides, the MIC50 in the test with Staphylococcus aureus, with Enterobacter cloacae and in the test with Klebsiella pneumoniae was more than 256 µg/mL each time. Also, the inhibition in the test on Escherichia coli [6] is 22%.

As for `CCCCCCCCOC(=O)[C@H](Cc1c[nH]c2ccccc12)NC(=O)[C@@H](N)Cc1cnc[nH]1`, the MIC50 was found to be 21 µg/mL (≈ 46.3 µM) in the test on Pseudomonas fluorescens; 64 µg/mL (≈ 141 µM) with Acinetobacter baumannii; 8 µg/mL (≈ 17.6 µM) with Pseudomonas aeruginosa [5]; 8 µg/mL (≈ 17.6 µM) with Escherichia coli [3]; 8 µg/mL (≈ 17.6 µM) in the test on Enterococcus faecalis; 12 µg/mL (≈ 26.5 µM) in the test on Bacillus subtilis [4]. For the same compound, the MIC50 in the test with Staphylococcus aureus came to 16 µg/mL (≈ 35.3 µM); in the test on Enterobacter cloacae, 32 µg/mL (≈ 70.5 µM); with Klebsiella pneumoniae it was 64 µg/mL (≈ 141 µM). In the test on Escherichia coli [2], the inhibition result is “inactive”.

For the compound `CCCCCCOC(=O)[C@H](Cc1c[nH]c2ccccc12)NC(=O)[C@@H](N)CCCNC(=N)N`, the figures for the MIC50 in the test with Pseudomonas fluorescens, in the test with Escherichia coli [3] and with Bacillus subtilis [4] were 53 µg/mL (≈ 119 µM), 37 µg/mL (≈ 83.2 µM) and 13 µg/mL (≈ 29.2 µM), respectively. The inhibition entry in the test with Escherichia coli [2] is “inactive”.

With `CCCCCCCCOC(=O)[C@H](Cc1c[nH]c2ccccc12)NC(=O)[C@@H](N)CCCNc1ncccn1`, the MIC50 amounted to 45 µg/mL (≈ 88.5 µM) with Pseudomonas fluorescens, 9 µg/mL (≈ 17.7 µM) with Escherichia coli [3] and 10 µg/mL (≈ 19.7 µM) in the test on Bacillus subtilis [4]. Besides, the inhibition result in the test on Escherichia coli [2] was “inactive”.

In the case of `CCCCCCCCNC(=O)[C@H](Cc1c[nH]c2ccccc12)NC(=O)[C@@H](N)CCCNC(=N)N`, the figures for the MIC50 in the test on Pseudomonas fluorescens, in the test with Escherichia coli [3] and in the test on Bacillus subtilis [4] were 20 µg/mL (≈ 42.4 µM), 3 µg/mL (≈ 6.36 µM) and 7 µg/mL (≈ 14.8 µM), respectively. Moreover, the result in the test with Escherichia coli [1] was Active. For the same compound, the inhibition entry in the test on Escherichia coli [2] is “inactive”.

`CCCCCCCCNC(=O)c1ccc(NC(=O)[C@@H](N)CCCNC(=N)N)c(OCCc2c[nH]c3ccccc23)c1`: the MIC50 is more than 125 µg/mL with Pseudomonas fluorescens, more than 125 µg/mL in the test with Escherichia coli [3] and 10 µg/mL (≈ 17.7 µM) in the test with Bacillus subtilis [4]. Also, the inhibition entry in the test on Escherichia coli [7] and in the test with Escherichia coli [8] was “inactive” each time.

Regarding `CCCCCCCCOC(=O)[C@H](Cc1c[nH]c2ccccc12)NC(=O)[C@@H](N)CCCNC(=N)N`, the MIC50 in the test on Pseudomonas fluorescens is 18 µg/mL (≈ 38.1 µM); in the test on Bacillus subtilis [9], 8 µg/mL (≈ 16.9 µM); in the test with Acinetobacter baumannii it was more than 256 µg/mL; in the test on Pseudomonas aeruginosa [5], more than 256 µg/mL; in the test on Escherichia coli [3], 5 µg/mL (≈ 10.6 µM); in the test with Escherichia coli [10], 31 µg/mL (≈ 65.6 µM). For the same compound, the MIC50 in the test with Enterococcus faecalis is more than 256 µg/mL; in the test with Pseudomonas aeruginosa [11], 40 µg/mL (≈ 84.6 µM); in the test with Bacillus subtilis [4], 13 µg/mL (≈ 27.5 µM); with Staphylococcus aureus, more than 256 µg/mL; with Enterobacter cloacae it was more than 256 µg/mL; in the test on Klebsiella pneumoniae, more than 256 µg/mL. In the test on Escherichia coli [2], the inhibition result is “inactive”. In addition, the result in the test with Escherichia coli [12] was Active.

Regarding `CCCCCCC(=O)N(Cc1ccccc1)c1ccc(C(=O)N[C@@H](CCCCN)C(=O)OC)c(OCc2ccccc2)c1`, the MIC50 in the test with Pseudomonas fluorescens is 46 µg/mL (≈ 78.3 µM); with Acinetobacter baumannii, more than 256 µg/mL; in the test with Pseudomonas aeruginosa [5], more than 256 µg/mL; in the test on Escherichia coli [3] it was 7 µg/mL (≈ 11.9 µM); in the test with Enterococcus faecalis, 16 µg/mL (≈ 27.2 µM); in the test with Bacillus subtilis [4], 12 µg/mL (≈ 20.4 µM). For the same compound, the MIC50 in the test on Staphylococcus aureus, in the test on Enterobacter cloacae and in the test on Klebsiella pneumoniae was more than 256 µg/mL throughout. Also, in [13], 140 µM corresponded to half-maximal inhibition (IC50). Further, the inhibition with Escherichia coli [14] stood at 62%.

As to `CCCCCCCCCCOC(=O)[C@H](Cc1c[nH]c2ccccc12)NC(=O)[C@@H](N)CCCNC(=N)N`, the MIC50 was 3 µg/mL (≈ 5.99 µM) in the test on Pseudomonas fluorescens, 3 µg/mL (≈ 5.99 µM) in the test with Escherichia coli [3] and 8 µg/mL (≈ 16 µM) in the test on Bacillus subtilis [4]. Also, the inhibition entry in the test with Escherichia coli [2] is “inactive”.

Broadly, the MIC50 is an inhibitory concentration at the 50% level, which refers to growth in some studies and to a panel of isolates in others. The inhibition is the percentage by which the read-out fell short of the control. A word on the IC50: it is the midpoint of a concentration-inhibition curve. Read a low IC50 as greater potency in that assay.
